Results on 4 compounds are retold here after patent US11491126B2, “Method for reducing lung inflammation” (priority 2017, dated 2022).

“Also recorded” adds a separate entry of the source. Read-outs that look alike come from different tables or passages of the source.

The conditions of data set [1]: ten CF children, nebulised, three months; cited from earlier work.
For data set [2], the system named is Pseudomonas spp. (P. aeruginosa) in sputum. From the text: Patients were monitored for a further four weeks, bringing the total study time to 10 weeks.
How the values of data set [3] were obtained:
Following discharge, treatment was continued twice a day for four weeks. Subjects were monitored for a further four weeks, bringing the total study time to 10 weeks.
At each study visit, lung function was measured by spirometry. Data was recorded as the best of three attempts, and results were expressed as % predicted.

In another data set the test system is bacterial infections. Particulars: inhaled EDTA alone; cited from earlier work.
The conditions of data set [4]: in vivo; cited from earlier work.
A further data set relates to Lung epithelial cells. To be noted: versus controls. The procedure: Lung epithelial cells are grown in tissue culture and inflammation induced by exposure to Fe(II) or excess oxygen. The cells are treated with CaEDTA (0, 1, 5, 10, 25, 50 mM) for 30 min, 1, 3, 24 and 48 hours.
Immunoassays are used to monitor the change in inflammatory markers, such as IL-6, IL-8, TNF-α, neutrophil elastase and others. Oxidative stress and toxicity is measured by assessing reduced glutathione (GSH) levels and apoptosis based on a TUNEL assay, both using commercial assay kits such as ThermoFisher Scientific's Glutathione Fluorescent Detection Kit and BioVision Inc's TUNEL DNA Gragmentation Assay Kit.

The procedure of data set [5]:
Subjects are then discharged and treatment continued twice a day for four weeks. Subjects are monitored for a further four weeks, bringing the total study time to 10 weeks. Sputum is collected by induction with nebulised 3% hypertonic saline at 8-10 L/min for ≥5 minutes. Samples is collected prior to treatment, and at 2, 6 and 10 weeks, processed according to the relevant protocol and stored at −80° C.
Expectorated sputum is stored in RNAlater®, total RNA is extracted using a Qiagen RNEasy® or similar extraction kit, converted into cDNA, and inflammatory markers monitored using qPCR as described by Sivaneson et al. (Mol Microbiol 79, 1353-1366) and quantified relative to known housekeeping genes, such as actin and/or GAPDH.
Expectorated sputum is frozen directly without processing and assayed for inflammatory markers as above. As a measure of structural damage, levels of matrix metalloproteinases (MMPs) and tissue inhibitors of metalloproteinases (TIMPs) are measured using gelatin zymography and immunoassays, respectively as previously described (Gaggar et al., Eur Respir J. 2011 38(3): 721-727; Garratt et al., Eur Respir J. 2015 46(2):384-94). The amount of iron in the sputum is quantified by ICP-MS as previously described (Hunter et al., MBio. 2013 4(4):1-8). The amount of iron-binding proteins is assessed using immunoassays. Oxidative stress is assessed by measuring glutathione (GSSG and GSH) using immunoassays as previously described (Kettle et al., Eur Respir J. 2014 44(1):122-9).
This is another data set of the same source.

For data set [6] the following is noted: versus placebo. On the procedure:
A single centre, randomised, double blind, crossover study of cystic fibrosis subjects is carried out. Subjects are randomised for treatment with inhaled CaEDTA or saline (placebo) for two weeks.
Iron levels, inflammatory markers, MMP/TIMP and FEV1 are monitored as above. Myeloperoxidase activity is also assayed as a measure of neutrophilic inflammation as previously described (Gaggar et al., Eur Respir J. 2011 38(3): 721-727). 3-chlorotyrosine will be measured as a biomarker of the potent oxidant hypochlorous acid. Levels are measured using stable isotope dilution gas chromatography with mass spectrometry (Gaggar et al., Eur Respir J. 2011 38(3): 721-727). Protein carbonyls are measured as an indicator of reactive oxygen species (ROS) using a commercial immunoassay kit (Gaggar et al., Eur Respir J. 2011 38(3): 721-727).

For data set [7] the following is noted: in vivo; cited from earlier work. The source holds these as a separate data set.
The procedure of data set [8]: Subjects with CF who need treatment with dry powder tobramycin will be allocated into four cohorts and receive 112 mg dry powder twice a day for 28 days. In addition, Cohort 1 (patients >18 years) will receive ascending doses of dry powder CaEDTA (37.5 mg BID for 1 week; 75 mg BID for 2 weeks, 150 mg BID for 1 week). Cohort 2 (patients >18 years) will receive CaEDTA (37.5 mg BID for 1 week; 75 BID for 2 weeks; 75 mg QID for 1 week). Cohort 3 (patients 12-18 years) will receive CaEDTA (37.5 mg BID for 1 week; 75 mg BID for 2 weeks, 150 mg BID for 1 week. Finally, an observational cohort will receive tobramycin alone for 28 days.
Sputum samples will be collected weekly and assessed for markers of infection and inflammation. Bacteria will be monitored by sputum colony counts. As a measure of structural damage, levels of matrix metalloproteinases (MMPs) and tissue inhibitors of metalloproteinases (TIMPs) are measured using gelatin zymography and immunoassays, respectively, as previously described (Gaggar et al., Eur Respir J. 2011 38(3): 721-727; Garratt et al., Eur Respir J. 2015 46(2):384-94). The amount of iron in the sputum is quantified by ICP-MS as previously described (Hunter et al., MBio. 2013 4(4):1-8). The amount of iron-binding proteins is assessed using immunoassays. Myeloperoxidase activity are also assayed as a measure of neutrophilic inflammation as previously described (Gaggar et al., Eur Respir J. 2011 38(3): 721-727). 3-chlorotyrosine is measured as a biomarker of the potent oxidant hypochlorous acid. Levels are measured using stable isotope dilution gas chromatography with mass spectrometry (Gaggar et al., Eur Respir J. 2011 38(3): 721-727). Protein carbonyls are measured as an indicator of reactive oxygen species (ROS) using a commercial immunoassay kit (Gaggar et al., Eur Respir J. 2011 38(3): 721-727). Oxidative stress is assessed by measuring glutathione (GSSG and GSH) using immunoassays as previously described (Kettle et al., Eur Respir J. 2014 44(1):122-9). Gene expression of inflammatory and oxidative stress markers (e.g. IL-8, IL-6, TNFa) will also be monitored by Nanostring, and proteins will be measured by ELISA. Oxidative stress can also be measured via metabolites, such as molondialdehyde (colorimetric assay) or 8-isoprostane (ELISA). Iron will be measured by elemental analysis using laser ablation-inductively coupled plasma-mass spectrometry (LA-ICP-MS).
This is another data set of the same source.

A further data set concerns P. aeruginosa biofilms. The data set is described as follows: Biofilms in suspended drops of cystic fibrosis mucus treated with nebulised/aerosolised agents. Particulars: treated 5 min, incubated 16 hours; tobramycin 20 mg/ml, CaEDTA particles 10 mg/ml. The class given is cell-based, Pseudomonas aeruginosa.
Data set [9] concerns Pseudomonas aeruginosa clinical strain. The data set is described as follows: MIC of tobramycin for the clinical strain used for biofilms. The class given is cell-based. Particulars: P. aeruginosa clinical strain.
This is another data set of the same source.
The mark [10] stands for this setting: EDTA group versus placebo group.

Method for P. aeruginosa biofilms: Drops of mucus (5 μl) were suspended from an inverted IBIDI cover slip and inoculated with 10^3 colony forming units (CFU), then incubated in a humidified environment at 35° C. for 72 hours to allow biofilm development. Drops were then treated for 5 min with either nebulised tobramycin (20 mg/ml), aerosolised CaEDTA particles (10 mg/ml), or both. Controls were treated with a 50/50 solution of nebulised 0.9% saline/water. Following treatment, the drops were incubated for 16 hours, then stained with BacLight LIVE/DEAD (1 μl), and fixed in paraformaldehyde vapour for 30 min. Biofilms were visualised using confocal microscopy.

Take sodium EDTA: the lung function result in data set [1] is recorded as “no change in lung function”.

On to `O=C(O)CN(CCN(CC(=O)O)CC(=O)O)CC(=O)O` [EDTA, ethylene diamine tetraacetic acid], for which, in [2] (after two weeks of treatment, 300 mg EDTA/day with tobramycin, placebo 4.5-fold), the “reduction in colony counts of P. aeruginosa (McC agar) versus start of treatment” value is over 400 fold. Moreover, the “mean increase in FEV1” value in data set [3] (after 2 weeks, 300 mg EDTA/day, placebo 5% points) is 16 % points. In [3] (four weeks after the treatment had been completed (10 weeks), placebo 2% point), the “increase in FEV1” value is reported as 7 % points. For the same compound, the “effect on lung function” value in [3] (mg EDTA/kg body weight) is given as “dose-dependent effect on lung function”. The “treatment of bacterial infections” value in the data set on bacterial infections is on record as “does not treat bacterial infections”. Further, the “effect on FEV1” value in [4] is given as “no effect on FEV1”. In addition, the “inflammatory markers (IL-6, IL-8, TNF-α, neutrophil elastase)” value in the data set on Lung epithelial cells (CaEDTA 0-50 mM, 30 min to 48 hours) was “concentration dependent reduction in inflammatory markers”. Also, in the data set on Lung epithelial cells, the “apoptosis (TUNEL assay)” value was “reduced apoptosis” and the “reduced glutathione (GSH) levels” value is reported as “reduction in GSH”. Further, in data set [5] (setting [10]), the “gene expression of inflammatory markers in sputum (qPCR)” value is reported as “mean reduction in the gene expression of inflammatory markers” and the “inflammatory markers in sputum” value was “reduction in inflammatory markers”. For the same compound, the “balance between MMPs and TIMPs” value in data set [5] (especially MMP-9 and TIMP-1) is “change in the balance between MMPs and TIMPs”. In addition, in data set [6], the MMP/TIMP balance result is “altered MMP/TIMP balance”; the inflammatory markers entry was “reduced levels of iron and inflammatory markers”; the iron levels result was “reduced levels of iron”; the “mean FEV1” value is on record as “increased mean FEV1”. In [6], the “mean levels of chlorotyrosine and carbonyls” value was “lower mean levels of chlorotyrosine and carbonyls”; the myeloperoxidase activity entry is “reduced myeloperoxidase activity”. Also, the bronchoconstriction entry in data set [7] is “concentration-dependent bronchoconstriction”. In addition, in data set [8] (setting [10]), the “inflammatory markers in sputum” value is “reduction in inflammatory markers” and the “iron levels in sputum” value is listed as “decrease in iron levels”. For the same compound, in data set [8] (especially MMP-9 and TIMP-1), the “balance between MMPs and TIMPs” value was “change in the balance between MMPs and TIMPs”. In data set [8] (versus control patients), the FEV1 entry is listed as “increase in FEV1” and the “bacterial load in sputum” value is “reduction of bacterial load in sputum”. Further, in the data set on P. aeruginosa biofilms, the “biofilm viability / killing (BacLight LIVE/DEAD, confocal microscopy)” value is “some degree of killing; also recorded: kill P. aeruginosa biofilms and act synergistically with tobramycin”.

Turning to `NC[C@H]1O[C@H](O[C@H]2[C@H](O)[C@@H](O[C@H]3O[C@H](CO)[C@@H](O)[C@H](N)[C@H]3O)[C@H](N)C[C@@H]2N)[C@H](N)C[C@@H]1O` [tobramycin], in data set [9], the MIC is over 256 µg/mL. In addition, the “biofilm viability / killing (BacLight LIVE/DEAD, confocal microscopy)” value with P. aeruginosa biofilms is listed as “little effect on viability”.

As for `O=C([O-])CN(CCN(CC(=O)[O-])CC(=O)[O-])CC(=O)[O-].[Ca+2].[Na+].[Na+]` [CaEDTA, CaNa2EDTA], in data set [2] (CF subjects, nebulised CaEDTA versus saline), the “bacterial load in expectorated mucus” value was “reduces the bacterial load in CF lungs faster than antibiotic treatment alone”. Also, under “5 minutes after 75 mg nebulised CaEDTA, CF subjects”, the “EDTA concentration in sputum” value fell in the range of 0.41 to 1.34 mM. Further, the “EDTA concentration inside mucus plugs” value (single dose of 75 mg CaEDTA, after 30 minutes) is “up to 1.34 mM”.
